{
  "source": "patent US20220233624A9",
  "about": "“ANTI-CANCER AND ANTI-PROLIFERATIVE COMPOSITIONS, AND METHODS FOR THEIR USE IN TREATING CANCER” (Natreon, Inc., priority 2020, published 2022)",
  "key": {"[1]": {"test_system": "Breast Cancer PDCs, ER/PR+ Her2 equivocal (HR+)", "test": "Anti-proliferation assay on breast cancer HR+ PDCs", "type": "cell-based, human", "conditions": "drug alone @ 10 uM; for inhibition at 10 µM: Homo sapiens", "method": "(§1) The outermost rows/columns of the plates were filled with PBS (pH 7.4) to avoid an edge-effect and were considered as blanks. Standardized aqueous extracts identified in Table 2 were prepared in main stock solutions by dissolving 1 mg of extract in 1 ml PBS (phosphate-buffered saline, pH 7.4). […] The plate was incubated in a CO2 incubator for 0/N incubation for 24 hours. […] Once extracts were added to incubated cells and mixed gently, the plate was given a brief spin and incubated in the CO2 incubator for 72 hours. The plate was removed from the incubator and 10 ul of detection reagent (CellTiterGlo®; Promega Corporation, Wisconsin, USA) added to each well of the 384 well plate. […] The assay described above is a two-dimensional (2D) assay."}, "[2]": {"test_system": "Breast Cancer PDCs, Triple negative (TN), SB 36344", "test": "Anti-proliferation assay on breast cancer TN PDCs", "type": "cell-based, human", "conditions": "drug alone @ 10 uM; for inhibition at 10 µM: Homo sapiens", "method": "as §1"}, "[3]": {"test_system": "colon cancer cells (cell line HT-29)", "test": "Anti-proliferation assay on colon cancer cells", "type": "cell-based", "conditions": "Homo sapiens", "method": "(§2) Anti-proliferative and anti-cancer activity of extracts of this invention on non-small cell lung cancer cells and colon cancer cells were assessed generally as described in Example I and are discussed below. […] As noted throughout this application, the below data is intended to describe the present invention but not to be limiting.\n(§3) Non-small cell lung cancer cells (cell line NCI-H-358) and colon cancer cells (cell line HT-29) were plated in a 384-well plate in amounts of about 1.25 k cells/well. […] Wells with untreated cells and with plain media were also included as controls. Plates passed quality control parameters."}, "[4]": {"test_system": "Glioma PDCs (Glioblastoma Grade IV)", "test": "Anti-proliferation assay (CellTiterGlo, 72 h) on glioma PDCs", "type": "cell-based, human", "conditions": "drug alone @ 10 uM; for inhibition at 10 µM: Homo sapiens", "method": "as §1"}, "[5]": {"test_system": "Histiocytic lymphoma (U-937) cells", "test": "Anti-proliferation assay on histiocytic lymphoma cells", "type": "cell-based", "conditions": "Homo sapiens", "method": "Cells were plated at 1.25 k/well in 384 well plates. […] Anti-proliferative assays were generally performed as described in Example I above, in triplicate, with detection reagent CellTiterGlo. Tables 98-99 show data for controls for assays on histiocytic lymphoma (U-937) cells, and that the data passed quality control parameters. Tables 101-102 show data for controls for assays on pancreatic cancer (Panc-1) cells, and that the data passed quality control parameters. […] The assay is generally as described in Example I."}, "[6]": {"test_system": "Non-small cell lung cancer cells (cell line NCI-H-358)", "test": "Anti-proliferation assay on non-small cell lung cancer cells", "type": "cell-based", "conditions": "Homo sapiens, NCI-H358", "method": "as §2, §3"}, "[7]": {"test_system": "CLL (Chronic lymphocytic leukemia) PDCs", "test": "Anti-proliferation assay on CLL PDCs", "type": "cell-based, human", "conditions": "for inhibition at 10 µM: Homo sapiens", "method": "as §1"}, "[8]": {"test_system": "SHP-77 (small cell lung cancer) cells", "test": "Anti-proliferation assay on small cell lung cancer cells", "type": "cell-based", "conditions": "Homo sapiens, SHP77", "method": "SHP-77 (small cell lung cancer) cells were incubated for 72 hours with 100 ug/ml, 30 ug/ml, and 10 ug/ml each of AyuFlex®, Capros® Phyto-BGS®, PrimaVie®, Sensoril®, Ayuric®, and Crominex®, and tested according to the anti-proliferative assay described above. Cells were plated at 1.25 k/well in 384 well plates. Standard of care drug docetaxel was also tested at a 10 uM concentration as a control. Anti-proliferative assays were generally performed as discussed above, in triplicate, with detection reagent CellTiterGlo® as discussed for instance in Example I. Tables 77-79 show data for controls and that the data passed quality control parameters."}, "[9]": {"conditions": "read-out: % Inhibition, single replicates"}, "[10]": {"conditions": "drug 10 uM, read-out: inhibition of proliferation"}, "[11]": {"conditions": "plate control @ 10 uM, read-out: % Inhibition Average (SD)"}, "[12]": {"conditions": "plate control @ 10 uM, read-out: % Inhibition n1"}, "[13]": {"conditions": "plate control @ 10 uM, read-out: % Inhibition n2"}, "[14]": {"conditions": "plate control @ 10 uM, read-out: % Inhibition n3"}, "[15]": {"conditions": "10 uM, 72 h, read-out: % Inhibition Average (SD)"}, "[16]": {"conditions": "10 uM, 72 h, read-out: % Inhibition n1"}, "[17]": {"conditions": "10 uM, 72 h, read-out: % Inhibition n2"}, "[18]": {"conditions": "10 uM, 72 h, read-out: % Inhibition n3"}, "[19]": {"conditions": "drug 10 uM, read-out: inhibition"}},
  "note": "“And” between values parts separate entries of the source, which are not always exact repeats. Equal values may be shown once. Read-outs that look alike come from different tables or passages of the source.",
  "data": [
    {"compound": "COc1cccc2c1C(=O)c1c(O)c3c(c(O)c1C2=O)C[C@@](O)(C(=O)CO)C[C@@H]3O[C@H]1C[C@H](N)[C@H](O)[C@H](C)O1", "note": "[Doxorubicin, doxorubicin]", "values": [
      {"measurement": "inhibition at 10 µM", "setting": "[1]; read-out: % Inhibition Avg", "result": 78, "unit": "%"},
      {"measurement": "inhibition at 10 µM", "setting": "[1]; [9]", "result": 75, "unit": "%"},
      {"measurement": "% Inhibition Avg", "setting": "[1]; 10 µM", "result": 77, "unit": "%"},
      {"measurement": "% Inhibition, single replicates", "setting": "[1]; 10 µM", "result": 81, "unit": "%"},
      {"measurement": "inhibition at 10 µM", "setting": "[2]; read-out: % Inhibition Avg", "result": 73, "unit": "%"},
      {"measurement": "inhibition at 10 µM", "setting": "[2]; [9]", "result": 73, "unit": "%"},
      {"measurement": "% Inhibition Avg", "setting": "[2]; 10 µM", "result": 93, "unit": "%"},
      {"measurement": "% Inhibition, single replicates", "setting": "[2]; 10 µM", "result": "72% and 91% and 92%"},
      {"measurement": "inhibition at 10 µM", "setting": "[3]; [10]", "result": 94, "unit": "%"},
      {"measurement": "inhibition at 10 µM", "setting": "[3]; [11]", "result": 94, "unit": "%"},
      {"measurement": "inhibition at 10 µM", "setting": "[3]; [12]", "result": 94, "unit": "%"},
      {"measurement": "inhibition at 10 µM", "setting": "[3]; [13]", "result": 93, "unit": "%"},
      {"measurement": "inhibition at 10 µM", "setting": "[3]; [14]", "result": 94, "unit": "%"},
      {"measurement": "inhibition at 10 µM", "setting": "[4]; read-out: % Inhibition Avg", "result": 82, "unit": "%"},
      {"measurement": "inhibition at 10 µM", "setting": "[4]; [9]", "result": 81, "unit": "%"},
      {"measurement": "% Inhibition Avg", "setting": "[4]; 10 µM", "result": 97, "unit": "%"},
      {"measurement": "% Inhibition, single replicates", "setting": "[4]; 10 µM", "result": "83% and 98% and 97% and 96%"},
      {"measurement": "inhibition at 10 µM", "setting": "[5]; [15]", "result": 100, "unit": "%"},
      {"measurement": "inhibition at 10 µM", "setting": "[5]; [16]", "result": 100, "unit": "%"},
      {"measurement": "inhibition at 10 µM", "setting": "[5]; [17]", "result": 100, "unit": "%"},
      {"measurement": "inhibition at 10 µM", "setting": "[5]; [18]", "result": 100, "unit": "%"},
      {"measurement": "inhibition at 10 µM", "setting": "[5]; [19]", "result": 100, "unit": "%"},
      {"measurement": "inhibition at 10 µM", "setting": "[6]; [10]", "result": 78, "unit": "%"},
      {"measurement": "inhibition at 10 µM", "setting": "[6]; [11]", "result": 78, "unit": "%"},
      {"measurement": "inhibition at 10 µM", "setting": "[6]; [12]", "result": 79, "unit": "%"},
      {"measurement": "inhibition at 10 µM", "setting": "[6]; [13]", "result": 77, "unit": "%"},
      {"measurement": "inhibition at 10 µM", "setting": "[6]; [14]", "result": 77, "unit": "%"},
      {"measurement": "inhibition at 10 µM", "setting": "[7]; Doxorubicin @ 10 uM, read-out: % Inhibition Avg", "result": 2, "unit": "%"},
      {"measurement": "inhibition at 10 µM", "setting": "[7]; Doxorubicin @ 10 uM, read-out: % Inhibition n1", "result": 16, "unit": "%"},
      {"measurement": "inhibition at 10 µM", "setting": "[7]; Doxorubicin @ 10 uM, read-out: % Inhibition n2", "result": -9, "unit": "%"},
      {"measurement": "inhibition at 10 µM", "setting": "[7]; Doxorubicin @ 10 uM, read-out: % Inhibition n3", "result": 1, "unit": "%"},
      {"measurement": "inhibition at 10 µM", "setting": "[7]; drug alone @ 10 uM, read-out: % Inhibition Avg", "result": 55, "unit": "%"},
      {"measurement": "inhibition at 10 µM", "setting": "[7]; drug alone @ 10 uM, read-out: % Inhibition, single replicates", "result": 50, "unit": "%"},
      {"measurement": "% Inhibition, single replicates", "setting": "[7]; drug alone @ 10 uM, 10 µM", "result": 61, "unit": "%"},
      {"measurement": "anti-cancer activity (in words)", "setting": "[7]; extracts 100, 30, 10 ug/ml, doxorubicin 10 uM", "result": "relatively low inhibitory activity"},
      {"measurement": "inhibition at 10 µM", "setting": "[8]; [15]", "result": 93, "unit": "%"},
      {"measurement": "inhibition at 10 µM", "setting": "[8]; [16]", "result": 94, "unit": "%"},
      {"measurement": "inhibition at 10 µM", "setting": "[8]; [17]", "result": 93, "unit": "%"},
      {"measurement": "inhibition at 10 µM", "setting": "[8]; [18]", "result": 93, "unit": "%"},
      {"measurement": "inhibition at 10 µM", "setting": "[8]; [19]", "result": 93, "unit": "%"}
    ]}
  ]
}
